Laboratory results from PubChem BioAssay AID2060621 (Molecular Pharmacology Branch, DTP, NCI, 2025).
Values belong to the molecule of their own block, whether it stands above or below them.

Test system: 324938-238-R-J1-PDC complex spheroids viability
Test: Anticancer human tumor 324938-238-R-J1-PDC patient-derived bladder carcinoma cell line growth inhibition [CLK]
Details: for IC50: curve of first compound; for viability, T/C: stronger effect = lower value
Summary of the method: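 Multi-cell-type spheroids combined patient-derived tumor cells with HUVEC endothelial cells and human mesenchymal stem cells. Paired agents were dosed in half-log steps down from about clinical Cmax, or from 10 microM where Cmax was unknown.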

[1] = second compound 0.0316 µM, first compound 0.0316 µM
[2] = second compound 0.0316 µM, first compound 0.1 µM
[3] = second compound 0.0316 µM, first compound 0.316 µM
[4] = second compound 0.0316 µM, first compound 1 µM
[5] = second compound 0.0316 µM, first compound 3.16 µM
[6] = second compound 0.0316 µM, first compound 10 µM
[7] = second compound 0.1 µM, first compound 0.0316 µM
[8] = second compound 0.1 µM, first compound 0.1 µM
[9] = second compound 0.1 µM, first compound 0.316 µM
[10] = second compound 0.1 µM, first compound 1 µM
[11] = second compound 0.1 µM, first compound 3.16 µM
[12] = second compound 0.1 µM, first compound 10 µM
[13] = second compound 0.316 µM, first compound 0.0316 µM
[14] = second compound 0.316 µM, first compound 0.1 µM
[15] = second compound 0.316 µM, first compound 0.316 µM
[16] = second compound 0.316 µM, first compound 1 µM
[17] = second compound 0.316 µM, first compound 3.16 µM
[18] = second compound 0.316 µM, first compound 10 µM
[19] = second compound 1 µM, first compound 0.0316 µM
[20] = second compound 1 µM, first compound 0.1 µM
[21] = second compound 1 µM, first compound 0.316 µM
[22] = second compound 1 µM, first compound 1 µM
[23] = second compound 1 µM, first compound 3.16 µM
[24] = second compound 1 µM, first compound 10 µM
[25] = second compound 3.16 µM, first compound 0.0316 µM
[26] = second compound 3.16 µM, first compound 0.1 µM
[27] = second compound 3.16 µM, first compound 0.316 µM
[28] = second compound 3.16 µM, first compound 1 µM
[29] = second compound 3.16 µM, first compound 3.16 µM
[30] = second compound 3.16 µM, first compound 10 µM
[31] = second compound 10 µM, first compound 0.0316 µM
[32] = second compound 10 µM, first compound 0.1 µM
[33] = second compound 10 µM, first compound 0.316 µM
[34] = second compound 10 µM, first compound 1 µM
[35] = second compound 10 µM, first compound 3.16 µM
[36] = second compound 10 µM, first compound 10 µM
[37] = second compound 0.0316 µM, first compound 0.00316 µM
[38] = second compound 0.0316 µM, first compound 0.01 µM
[39] = second compound 0.1 µM, first compound 0.00316 µM
[40] = second compound 0.1 µM, first compound 0.01 µM
[41] = second compound 0.316 µM, first compound 0.00316 µM
[42] = second compound 0.316 µM, first compound 0.01 µM
[43] = second compound 1 µM, first compound 0.00316 µM
[44] = second compound 1 µM, first compound 0.01 µM
[45] = second compound 3.16 µM, first compound 0.00316 µM
[46] = second compound 3.16 µM, first compound 0.01 µM
[47] = second compound 10 µM, first compound 0.00316 µM
[48] = second compound 10 µM, first compound 0.01 µM
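Further: viability read after seven days of drug exposure.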
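Wherever viability, T/C is given: 100% = DMSO vehicle control wells.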

SMILES: CC(=O)O[C@H]1C(=O)[C@@]2(C)[C@H]([C@H](OC(=O)c3ccccc3)[C@]3(O)C[C@H](OC(=O)[C@H](O)[C@@H](NC(=O)c4ccccc4)c4ccccc4)C(C)=C1C3(C)C)[C@]1(OC(C)=O)CO[C@@H]1C[C@@H]2O + CNC(=O)c1ccc(Nc2nc(OC3CCCC3)c3c(-c4ccc5nc(C)oc5c4)c[nH]c3n2)c(OC)c1
IC50 (second compound 0.0316 µM): < 31.6 nM
IC50 (second compound 0.1 µM): < 31.6 nM
IC50 (second compound 0.316 µM): < 31.6 nM
IC50 (second compound 1 µM): < 31.6 nM
IC50 (second compound 3.16 µM): < 31.6 nM
IC50 (second compound 10 µM): < 31.6 nM
viability, T/C [1]: 14.3%
viability, T/C [2]: 15.1%
viability, T/C [3]: 13.8%
viability, T/C [4]: 14.1%
viability, T/C [5]: 17.1%
viability, T/C [6]: 22%
viability, T/C [7]: 19.8%
viability, T/C [8]: 17.3%
viability, T/C [9]: 22.2%
viability, T/C [10]: 21.9%
viability, T/C [11]: 27.4%
viability, T/C [12]: 35.1%
viability, T/C [13]: 16.9%
viability, T/C [14]: 17.5%
viability, T/C [15]: 26.2%
viability, T/C [16]: 27.8%
viability, T/C [17]: 35.2%
viability, T/C [18]: 37%
viability, T/C [19]: 17.1%
viability, T/C [20]: 17.7%
viability, T/C [21]: 23.9%
viability, T/C [22]: 24.2%
viability, T/C [23]: 31.9%
viability, T/C [24]: 28.6%
viability, T/C [25]: 16.6%
viability, T/C [26]: 18.2%
viability, T/C [27]: 20.1%
viability, T/C [28]: 24.6%
viability, T/C [29]: 27.2%
viability, T/C [30]: 27.2%
viability, T/C [31]: 16.9%
viability, T/C [32]: 18.1%
viability, T/C [33]: 20.6%
viability, T/C [34]: 23.5%
viability, T/C [35]: 25.1%
viability, T/C [36]: 25.6%

SMILES: CCc1c2c(nc3ccc(O)cc13)-c1cc3c(c(=O)n1C2)COC(=O)[C@]3(O)CC + CNC(=O)c1ccc(Nc2nc(OC3CCCC3)c3c(-c4ccc5nc(C)oc5c4)c[nH]c3n2)c(OC)c1
IC50 (second compound 0.0316 µM): < 3.16 nM
IC50 (second compound 0.1 µM): < 3.16 nM
IC50 (second compound 0.316 µM): < 3.16 nM
IC50 (second compound 1 µM): < 3.16 nM
IC50 (second compound 3.16 µM): < 3.16 nM
IC50 (second compound 10 µM): < 3.16 nM
viability, T/C [37]: 17.9%
viability, T/C [38]: 12.3%
viability, T/C [1]: 12.7%
viability, T/C [2]: 13%
viability, T/C [3]: 11.2%
viability, T/C [4]: 2.24%
viability, T/C [39]: 17.9%
viability, T/C [40]: 13.3%
viability, T/C [7]: 12.5%
viability, T/C [8]: 12.7%
viability, T/C [9]: 11.3%
viability, T/C [10]: 2.05%
viability, T/C [41]: 14.6%
viability, T/C [42]: 11.1%
viability, T/C [13]: 11.8%
viability, T/C [14]: 12.1%
viability, T/C [15]: 9.98%
viability, T/C [16]: 1.99%
viability, T/C [43]: 12.2%
viability, T/C [44]: 9.22%
viability, T/C [19]: 10.1%
viability, T/C [20]: 8.69%
viability, T/C [21]: 8.5%
viability, T/C [22]: 1.33%
viability, T/C [45]: 11.4%
viability, T/C [46]: 9.74%
viability, T/C [25]: 8.18%
viability, T/C [26]: 8%
viability, T/C [27]: 6.57%
viability, T/C [28]: 1.29%
viability, T/C [47]: 10.2%
viability, T/C [48]: 10.8%
viability, T/C [31]: 8.22%
viability, T/C [32]: 8.16%
viability, T/C [33]: 6.28%
viability, T/C [34]: 1.01%

Continued, in another order:

IC50 (second compound 0.0316 µM): 11.9 nM
IC50 (second compound 0.1 µM): < 0.316 nM
IC50 (second compound 0.316 µM): < 0.316 nM
IC50 (second compound 1 µM): < 0.316 nM
IC50 (second compound 3.16 µM): < 0.316 nM
IC50 (second compound 10 µM): < 0.316 nM
SMILES: Cn1ncnc1[C@H]1c2n[nH]c(=O)c3cc(F)cc(c23)N[C@@H]1c1ccc(F)cc1 + CNC(=O)c1ccc(Nc2nc(OC3CCCC3)c3c(-c4ccc5nc(C)oc5c4)c[nH]c3n2)c(OC)c1
viability, T/C (second compound 0.0316 µM, first compound 0.000316 µM): 83%
viability, T/C (second compound 0.0316 µM, first compound 0.001 µM): 89.5%
viability, T/C [37]: 66.3%
viability, T/C [38]: 54.8%
viability, T/C [1]: 35.1%
viability, T/C [2]: 26.6%
viability, T/C (second compound 0.1 µM, first compound 0.000316 µM): 26.2%
viability, T/C (second compound 0.1 µM, first compound 0.001 µM): 26.5%
viability, T/C [39]: 21.8%
viability, T/C [40]: 21%
viability, T/C [7]: 20.4%
viability, T/C [8]: 20.7%
viability, T/C (second compound 0.316 µM, first compound 0.000316 µM): 17.8%
viability, T/C (second compound 0.316 µM, first compound 0.001 µM): 20.8%
viability, T/C [41]: 16.7%
viability, T/C [42]: 18.7%
viability, T/C [13]: 19.8%
viability, T/C [14]: 17.4%
viability, T/C (second compound 1 µM, first compound 0.000316 µM): 16.5%
viability, T/C (second compound 1 µM, first compound 0.001 µM): 15.4%
viability, T/C [43]: 14.7%
viability, T/C [44]: 13.9%
viability, T/C [19]: 14.8%
viability, T/C [20]: 15.9%
viability, T/C (second compound 3.16 µM, first compound 0.000316 µM): 17.5%
viability, T/C (second compound 3.16 µM, first compound 0.001 µM): 19.6%
viability, T/C [45]: 15.4%
viability, T/C [46]: 17%
viability, T/C [25]: 18%
viability, T/C [26]: 15.4%
viability, T/C (second compound 10 µM, first compound 0.000316 µM): 18.2%
viability, T/C (second compound 10 µM, first compound 0.001 µM): 18.8%
viability, T/C [47]: 18.9%
viability, T/C [48]: 17.8%
viability, T/C [31]: 18.7%
viability, T/C [32]: 17.3%

IC50 (second compound 0.0316 µM): < 31.6 nM
IC50 (second compound 0.1 µM): < 31.6 nM
IC50 (second compound 0.316 µM): < 31.6 nM
IC50 (second compound 1 µM): < 31.6 nM
IC50 (second compound 3.16 µM): < 31.6 nM
IC50 (second compound 10 µM): < 31.6 nM
SMILES: Nc1ccn(C2OC(CO)C(O)C2(F)F)c(=O)n1 (stereo not given) + CNC(=O)c1ccc(Nc2nc(OC3CCCC3)c3c(-c4ccc5nc(C)oc5c4)c[nH]c3n2)c(OC)c1
viability, T/C [1]: 38.6%
viability, T/C [2]: 16.4%
viability, T/C [3]: 15.2%
viability, T/C [4]: 14%
viability, T/C [5]: 10.6%
viability, T/C [6]: 8.72%
viability, T/C [7]: 23%
viability, T/C [8]: 18.8%
viability, T/C [9]: 12.8%
viability, T/C [10]: 14.2%
viability, T/C [11]: 10.3%
viability, T/C [12]: 7.12%
viability, T/C [13]: 17.1%
viability, T/C [14]: 14.8%
viability, T/C [15]: 12.3%
viability, T/C [16]: 12.5%
viability, T/C [17]: 8.68%
viability, T/C [18]: 7.82%
viability, T/C [19]: 15%
viability, T/C [20]: 15.4%
viability, T/C [21]: 12.2%
viability, T/C [22]: 11.6%
viability, T/C [23]: 9.63%
viability, T/C [24]: 8.24%
viability, T/C [25]: 17.1%
viability, T/C [26]: 13.7%
viability, T/C [27]: 13%
viability, T/C [28]: 12%
viability, T/C [29]: 8.99%
viability, T/C [30]: 9.03%
viability, T/C [31]: 18%
viability, T/C [32]: 12.9%
viability, T/C [33]: 14.3%
viability, T/C [34]: 12.1%
viability, T/C [35]: 13.4%
viability, T/C [36]: 8.05%

IC50 (second compound 0.0316 µM): 256 nM
IC50 (second compound 0.1 µM): < 31.6 nM
IC50 (second compound 0.316 µM): < 31.6 nM
IC50 (second compound 1 µM): < 31.6 nM
IC50 (second compound 3.16 µM): < 31.6 nM
IC50 (second compound 10 µM): < 31.6 nM
SMILES: O=c1[nH]cc(F)c(=O)[nH]1 + CNC(=O)c1ccc(Nc2nc(OC3CCCC3)c3c(-c4ccc5nc(C)oc5c4)c[nH]c3n2)c(OC)c1
viability, T/C [1]: 80.6%
viability, T/C [2]: 77.5%
viability, T/C [3]: 43.5%
viability, T/C [4]: 28.6%
viability, T/C [5]: 22.2%
viability, T/C [6]: 25.1%
viability, T/C [7]: 25.2%
viability, T/C [8]: 24%
viability, T/C [9]: 23.8%
viability, T/C [10]: 19.8%
viability, T/C [11]: 15.7%
viability, T/C [12]: 17.5%
viability, T/C [13]: 19.6%
viability, T/C [14]: 18.5%
viability, T/C [15]: 16.2%
viability, T/C [16]: 14.7%
viability, T/C [17]: 14.3%
viability, T/C [18]: 14.7%
viability, T/C [19]: 16.1%
viability, T/C [20]: 15.2%
viability, T/C [21]: 15.4%
viability, T/C [22]: 13.8%
viability, T/C [23]: 10.5%
viability, T/C [24]: 9.31%
viability, T/C [25]: 15.3%
viability, T/C [26]: 14.8%
viability, T/C [27]: 14%
viability, T/C [28]: 12.7%
viability, T/C [29]: 11.2%
viability, T/C [30]: 11.1%
viability, T/C [31]: 17.8%
viability, T/C [32]: 15.3%
viability, T/C [33]: 15.1%
viability, T/C [34]: 16.6%
viability, T/C [35]: 12.6%
viability, T/C [36]: 10.3%
